Experimental data published in the supplement of paper PMC10883282.
± gives the standard deviation of the averaged measurements.

System: A204
Assay: relative viability vs DMSO control (72 h) (fraction); higher = more viable cells
Summary of the method: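 A 5 µM positive control and 0.1% DMSO vehicle ran alongside sarcoma cell lines seeded in 384-well plates to reach 80–90% confluence. Serially diluted compound, 2.5 µl from source plates of 10 mM to 0.0002 mM, was added after 24 h, and the plates were held 72 h at 37 °C, 5% CO2. Relative viability was worked out from ATPLite readings as percent growth averaged over up to triplicate wells. The values were rescaled so that 1 is full and 0 is none.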

SMILES | relative viability (0.00017 µM) | relative viability (0.00051 µM) | relative viability (0.00152 µM) | relative viability (0.00457 µM) | relative viability (0.01372 µM) | relative viability (0.04115 µM) | relative viability (0.1235 µM) | relative viability (0.3704 µM) | relative viability (1.111 µM) | relative viability (3.333 µM) | relative viability (10 µM)
COc1cc2/c(=N/c3ccc(Br)cc3F)nc[nH]c2cc1OCC1CCN(C)CC1 [Vandetanib] | 1.04 ± 0.076 | 1.02 ± 0.018 | 1.02 ± 0.049 | 1.03 ± 0.067 | 1.04 ± 0.046 | 1 ± 0.067 | 0.981 ± 0.057 | 0.93 ± 0.07 | 0.706 ± 0.039 | 0.348 ± 0.073 | 0.0148 ± 0.0046
CCc1cc2c(cc1N1CCC(N3CCOCC3)CC1)C(C)(C)c1[nH]c3cc(C#N)ccc3c1C2=O [Alectinib] | 1.09 ± 0.015 | 1.07 ± 0.028 | 1.09 ± 0.023 | 1.1 ± 0.036 | 1.08 ± 0.012 | 1.09 ± 0.0079 | 1.13 ± 0.021 | 1.13 ± 0.014 | 1.104 ± 0.005 | 1.14 ± 0.036 | 1.14 ± 0.07
Cc1nc(-c2cn3c(n2)-c2ccc(-c4cnn(C(C)(C)C(N)=O)c4)cc2OCC3)n(C(C)C)n1 [Taselisib] | 1.05 ± 0.1 | 1.03 ± 0.086 | 0.993 ± 0.039 | 0.924 ± 0.061 | 0.852 ± 0.085 | 0.742 ± 0.041 | 0.609 ± 0.021 | 0.538 ± 0.028 | 0.435 ± 0.019 | 0.354 ± 0.038 | 0.29 ± 0.02
O=C(Cc1ccc(-c2ccc(OCCN3CCOCC3)cc2)cn1)NCc1ccccc1 [KX2-391] | 1.09 ± 0.031 | 1.07 ± 0.042 | 1.11 ± 0.04 | 1.05 ± 0.033 | 1.04 ± 0.084 | 0.894 ± 0.072 | 0.458 ± 0.064 | 0.36 ± 0.032 | 0.341 ± 0.014 | 0.31 ± 0.02 | 0.266 ± 0.0096
